Measured values: ChEMBL document CHEMBL3045590, “Design, synthesis, bioactivity, and structure-activity relationship (SAR) studies of novel benzoylphenylureas containing oxime ether group” (2008)
In brackets after ≈: the same amount, converted by molar mass.

Columns and labels:
Format in all cases: functional
Cucumis sativus = test: Growth regulation of Cucumis sativus (cucumber) seeds assessed as stimulation of radicle growth at 10 mg/l at 26 degC after 5 days
Culex pipiens pallens [1] = test: Larvicidal activity against fourth-instar larval stage of Culex pipiens pallens (mosquito) assessed as mortality at 0.25 mg/l at 25 +/-1 degC after 8 days; settings: 192 h
Culex pipiens pallens [2] = test: Larvicidal activity against fourth-instar larval stage of Culex pipiens pallens (mosquito) assessed as mortality at 0.5 mg/l at 25 +/-1 degC after 8 days; settings: 192 h
Culex pipiens pallens [3] = test: Larvicidal activity against fourth-instar larval stage of Culex pipiens pallens (mosquito) assessed as mortality at 1 mg/l at 25 +/-1 degC after 8 days; settings: 192 h
Culex pipiens pallens [4] = test: Larvicidal activity against fourth-instar larval stage of Culex pipiens pallens (mosquito) assessed as mortality at 0.05 mg/l at 25 +/-1 degC after 8 days; settings: 192 h
Culex pipiens pallens [5] = test: Larvicidal activity against fourth-instar larval stage of Culex pipiens pallens (mosquito) assessed as mortality at 0.025 mg/l at 25 +/-1 degC after 8 days; settings: 192 h
Culex pipiens pallens [6] = test: Larvicidal activity against fourth-instar larval stage of Culex pipiens pallens (mosquito) assessed as mortality at 0.1 mg/l at 25 +/-1 degC after 8 days; settings: 192 h
Mythimna separata [7] = test: Larvicidal activity against fourth-instar larval stage of Mythimna separata (Oriental armyworm) in compound-pretreated corn leaves assessed as mortality at 50 mg/l at 25 +/-1 degC after 4 days
Mythimna separata [8] = test: Larvicidal activity against fourth-instar larval stage of Mythimna separata (Oriental armyworm) in compound-pretreated corn leaves assessed as mortality at 100 mg/l at 25 +/-1 degC after 4 days
Mythimna separata [9] = test: Larvicidal activity against fourth-instar larval stage of Mythimna separata (Oriental armyworm) in compound-pretreated corn leaves assessed as mortality at 200 mg/l at 25 +/-1 degC after 4 days
Culex pipiens pallens [10] = test: Larvicidal activity against fourth-instar larval stage of Culex pipiens pallens (mosquito) assessed as mortality at 0.0025 mg/l at 25 +/-1 degC after 8 days; settings: 192 h
Culex pipiens pallens [11] = test: Larvicidal activity against fourth-instar larval stage of Culex pipiens pallens (mosquito) assessed as mortality at 0.005 mg/l at 25 +/-1 degC after 8 days; settings: 192 h
Culex pipiens pallens [12] = test: Larvicidal activity against fourth-instar larval stage of Culex pipiens pallens (mosquito) assessed as mortality at 0.01 mg/l at 25 +/-1 degC after 8 days; settings: 192 h
Mythimna separata [13] = test: Larvicidal activity against fourth-instar larval stage of Mythimna separata (Oriental armyworm) in compound-pretreated corn leaves assessed as mortality at 5 mg/l at 25 +/-1 degC after 4 days
Mythimna separata [14] = test: Larvicidal activity against fourth-instar larval stage of Mythimna separata (Oriental armyworm) in compound-pretreated corn leaves assessed as mortality at 10 mg/l at 25 +/-1 degC after 4 days
Mythimna separata [15] = test: Larvicidal activity against fourth-instar larval stage of Mythimna separata (Oriental armyworm) in compound-pretreated corn leaves assessed as mortality at 25 mg/l at 25 +/-1 degC after 4 days
Mythimna separata [16] = test: Larvicidal activity against fourth-instar larval stage of Mythimna separata (Oriental armyworm) in compound-pretreated corn leaves assessed as mortality at 2.5 mg/l at 25 +/-1 degC after 4 days
Mythimna separata [17] = test: Larvicidal activity against fourth-instar larval stage of Mythimna separata (Oriental armyworm) in compound-pretreated corn leaves assessed as mortality at 1 mg/l at 25 +/-1 degC after 4 days
Culex pipiens pallens [18] = test: Larvicidal activity against fourth-instar larval stage of Culex pipiens pallens (mosquito) assessed as mortality at 2 mg/l at 25 +/-1 degC after 8 days; settings: 192 h
Mythimna separata [19] = test: Larvicidal activity against fourth-instar larval stage of Mythimna separata (Oriental armyworm) in compound-pretreated corn leaves assessed as mortality at 25 +/-1 degC after 4 days
Mythimna separata [20] = test: Larvicidal activity against fourth-instar larval stage of Mythimna separata (Oriental armyworm) in compound-pretreated corn leaves assessed as mortality at 0.5 mg/l at 25 +/-1 degC after 4 days

Row | SMILES | Activity (Cucumis sativus) [%] | mortality at 0.25 µg/mL (Culex pipiens pallens [1]) [%] | mortality at 0.5 µg/mL (Culex pipiens pallens [2]) [%] | mortality at 1 µg/mL (Culex pipiens pallens [3]) [%] | mortality at 0.05 µg/mL (Culex pipiens pallens [4]) [%] | mortality at 0.025 µg/mL (Culex pipiens pallens [5]) [%] | mortality at 0.1 µg/mL (Culex pipiens pallens [6]) [%] | mortality at 50 µg/mL (Mythimna separata [7]) [%] | mortality at 0.01 µg/mL (Culex pipiens pallens [12]) [%] | mortality at 10 µg/mL (Mythimna separata [14]) [%] | mortality at 25 µg/mL (Mythimna separata [15]) [%] | mortality at 2.5 µg/mL (Mythimna separata [16]) [%] | LC50 (Mythimna separata [19]) [µg/mL] | other results
1 | CCCCO/N=C/c1ccc(NC(=O)NC(=O)c2c(F)cccc2F)cc1 | 50 | 100 | 100 | 100 | 100 | 0 | 100 | 0 | – | – | – | – | – | mortality at 100 µg/mL (Mythimna separata [8]): 40%; mortality at 200 µg/mL (Mythimna separata [9]): 50%
2 | CCC(C)O/N=C/c1ccc(NC(=O)NC(=O)c2c(F)cccc2F)cc1 (centres undefined) | – | – | – | – | 100 | 100 | 100 | – | 40 | 80 | 100 | 30 | – | mortality at 0.0025 µg/mL (Culex pipiens pallens [10]): 10%; mortality at 0.005 µg/mL (Culex pipiens pallens [11]): 20%; mortality at 5 µg/mL (Mythimna separata [13]): 50%; mortality at 1 µg/mL (Mythimna separata [17]): 0%
3 | CCCC(C)O/N=C/c1ccc(NC(=O)NC(=O)c2c(F)cccc2F)cc1 (centres undefined) | 45 | – | – | – | 100 | 100 | 100 | 80 | 40 | 20 | 70 | 0 | – | mortality at 0.0025 µg/mL (Culex pipiens pallens [10]): 10%; mortality at 0.005 µg/mL (Culex pipiens pallens [11]): 20%
4 | CC(C)CO/N=C/c1ccc(NC(=O)NC(=O)c2c(F)cccc2F)cc1 | 45 | 100 | 100 | 100 | 10 | 10 | 100 | 80 | 0 | – | 30 | 0 | – | mortality at 100 µg/mL (Mythimna separata [8]): 100%
5 | CCCCCO/N=C/c1ccc(NC(=O)NC(=O)c2c(F)cccc2F)cc1 | 50 | 80 | 90 | 100 | 0 | – | 15 | 90 | – | 0 | 20 | – | – | mortality at 2 µg/mL (Culex pipiens pallens [18]): 100%
6 | O=C(NC(=O)c1c(F)cccc1F)Nc1ccc(/C=N/OC2CCCC2)cc1 | 85 | 100 | 100 | 100 | 10 | 0 | 100 | 0 | – | – | – | – | – | mortality at 100 µg/mL (Mythimna separata [8]): 20%; mortality at 200 µg/mL (Mythimna separata [9]): 70%
7 | O=C(NC(=O)c1ccccc1Cl)Nc1ccc(Cl)cc1 [CHLORBENZURON] | – | – | – | – | – | – | – | – | – | – | – | – | 2.29 (≈ 7.41 µM) | –
8 | O=C(NC(=O)c1c(F)cccc1F)Nc1cc(Cl)c(Oc2ncc(C(F)(F)F)cc2Cl)c(Cl)c1 [CHLORFLUAZURON] | – | – | – | – | – | – | – | – | – | – | – | – | 1.03 (≈ 1.91 µM) | –
9 | O=C(NC(=O)c1c(Cl)cccc1Cl)Nc1ccc(Cl)cc1 [DICHLORBENZURON] | – | – | – | – | – | – | – | – | – | – | – | – | 1.82 (≈ 5.3 µM) | –
10 | O=C(NC(=O)c1c(F)cccc1F)Nc1ccc(CO/N=C(/c2ccc(Cl)cc2)C2CC2)cc1 [FLUCYCLOXURON] | – | – | – | – | 100 | 15 | 100 | – | 0 | 95 | – | 50 | 2.44 (≈ 5.04 µM) | mortality at 5 µg/mL (Mythimna separata [13]): 90%; mortality at 0.5 µg/mL (Mythimna separata [20]): 0%; mortality at 1 µg/mL (Mythimna separata [17]): 10%
11 | O=C(NC(=O)c1c(F)cccc1F)Nc1cc(Cl)c(OC(F)(F)C(F)F)c(Cl)c1 [HEXAFLUMURON] | – | – | – | – | – | – | – | – | – | – | – | – | 4.7 (≈ 10.2 µM) | –
12 | O=C(NC(=O)c1c(F)cccc1F)Nc1cc(Cl)c(F)c(Cl)c1F [TEFLUBENZURON] | – | – | – | – | – | – | – | – | – | – | – | – | 1.14 (≈ 2.99 µM) | –
